Literature values, collected in patent US8889725B2, “Sugar-based bait” (Bayer Cropscience AG, priority 2006, dated 2014).

System: Tapinoma sessile

CCOP(=S)(OCC)O/N=C(\C#N)c1ccccc1 [phoxim, O,O-diethylthionophosphoryl-α-oximinophenylacetonitrile]
control of the ants (baits with 0.05% by weight of phoxim in blackberry syrup or blackberry jam): complete control
acceptance of the bait by ants (baits with 0.5% to 1% by weight of phoxim): repellent action
